In patent US20070004660A1, “Synergistic Modulation of Flt3 Kinase Using Alkylquinolines and Alkylquinazolines” (priority 2005, published 2007):

Each compound was assayed against T1, isolated kinase domain of the human FLT3 receptor (a.a. 571-993) (Homo sapiens, UniProt P36888) (assay: FLT3 fluorescence polarization kinase assay). Details: 150 uM ATP; uncertainty ±10%.
T1 construct: human FLT3 receptor (a.a. 571-993)
T1 sequence (P36888 571-993): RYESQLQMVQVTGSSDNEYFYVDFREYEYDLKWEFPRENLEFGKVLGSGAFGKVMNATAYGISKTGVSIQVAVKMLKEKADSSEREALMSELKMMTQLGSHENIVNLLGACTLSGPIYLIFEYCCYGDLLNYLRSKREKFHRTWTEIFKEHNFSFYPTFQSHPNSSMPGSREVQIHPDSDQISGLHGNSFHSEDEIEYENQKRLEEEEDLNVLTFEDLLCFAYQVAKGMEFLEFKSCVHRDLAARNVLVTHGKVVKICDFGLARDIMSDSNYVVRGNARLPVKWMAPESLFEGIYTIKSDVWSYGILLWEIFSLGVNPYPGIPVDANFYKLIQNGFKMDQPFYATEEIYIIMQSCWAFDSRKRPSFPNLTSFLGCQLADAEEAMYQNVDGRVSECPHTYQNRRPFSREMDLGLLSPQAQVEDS
Type: biochemical
For `CC(C)Oc1ccc(NC(=O)N2CCC(c3ncnc4cc(N5CCN(C)CC5)ccc34)CC2)cc1` [Example 103, 4-[7-(4-Methyl-piperazin-1-yl)-quinazolin-4-yl]-piperidine-1-carboxylic acid (4-isopropoxy-phenyl)-amide], the IC50 was 1 nM. `COc1cc2ncnc(C3CCN(C(=O)Nc4ccc(OC(F)F)cc4)CC3)c2cc1OC` [Example 51, 4-(6,7-Dimethoxy-quinazolin-4-yl)-piperidine-1-carboxylic acid (4-difluoromethoxy-phenyl)-amide] was tested, and the IC50 was 160 nM. `CC(C)Oc1ccc(NC(=O)N2CCC(c3ncnc4ccc(OCCCN5CCN(C)CC5)cc34)CC2)cc1` [Example 76, 4-{6-[3-(4-Methyl-piperazin-1-yl)-propoxy]-quinazolin-4-yl}-piperidine-1-carboxylic acid (4-isopropoxy-phenyl)-amide] showed an IC50 of 251 nM. Work on `COc1cc2ncnc(C3CCN(C(=O)Nc4ccc(OC(C)C)nc4)CC3)c2cc1OC` [Example 56, 4-(6,7-Dimethoxy-quinazolin-4-yl)-piperidine-1-carboxylic acid (6-isopropoxy-pyridin-3-yl)-amide] yielded an IC50 of 30 nM. `COc1cc2ncnc(C3CCN(C(=O)Nc4ccc(C(C)(C)C)cc4)CC3)c2cc1OC` [Example 53, 4-(6,7-Dimethoxy-quinazolin-4-yl)-piperidine-1-carboxylic acid (4-tert-butyl-phenyl)-amide] showed an IC50 of 15 nM. In the case of `CN(C)C(=O)N1CCN(CCCOc2ccc3c(C4CCN(C(=O)Nc5ccc(N6CCOCC6)cc5)CC4)ncnc3c2)CC1` [Example 120, 4-(3-{4-[1-(4-Morpholin-4-yl-phenylcarbamoyl)-piperidin-4-yl]-quinazolin-7-yloxy}-propyl)-piperazine-1-carboxylic acid dimethylamide], the IC50 is reported as 36 nM. `CN1CCC(COc2ccc3c(C4CCN(C(=O)Nc5ccc(N6CCOCC6)nc5)CC4)ncnc3c2)CC1` [Example 108, 4-[7-(1-Methyl-piperidin-4-ylmethoxy)-quinazolin-4-yl]-piperidine-1-carboxylic acid (6-morpholin-4-yl-pyridin-3-yl)-amide] showed an IC50 of 4 nM. `O=C(Nc1ccc(N2CCOCC2)cc1)N1CCC(c2ncnc3cc(OCCCN4CCC[C@H]4CO)ccc23)CC1` [Example 119, (S)-4-{7-[3-(2-Hydroxymethyl-pyrrolidin-1-yl)-propoxy]-quinazolin-4-yl}-piperidine-1-carboxylic acid (4-morpholin-4-yl-phenyl)-amide] was tested, and the IC50 was 47 nM. `O=C(Nc1ccc(N2CCOCC2)cc1)N1CCC(c2ncnc3cc(OCCCO)ccc23)CC1` [Example 77, 4-[7-(3-Hydroxy-propoxy)-quinazolin-4-yl]-piperidine-1-carboxylic acid (4-morpholin-4-yl-phenyl)-amide] gave an IC50 of 103 nM. Work on `CC(C)Oc1ccc(NC(=O)N2CCC(c3ncnc4ccc(I)cc34)CC2)cc1` [Example 11, 4-(6-Iodo-quinazolin-4-yl)-piperidine-1-carboxylic acid (4-isopropoxy-phenyl)-amide] yielded an IC50 of 46 nM. Compound `O=C1CCCN1CCCOc1ccc2c(C3CCN(C(=O)Nc4ccc(N5CCCC5)nc4)CC3)ncnc2c1` [Example 89, 4-{7-[3-(2-Oxo-pyrrolidin-1-yl)-propoxy]-quinazolin-4-yl}-piperidine-1-carboxylic acid (6-pyrrolidin-1-yl-pyridin-3-yl)-amide] has an IC50 of 2 nM. `CN1CCN(CCCOc2ccc3c(C4CCN(C(=O)Nc5cnc(N6CCCC6)nc5)CC4)ncnc3c2)CC1` [Example 105, 4-{7-[3-(4-Methyl-piperazin-1-yl)-propoxy]-quinazolin-4-yl}-piperidine-1-carboxylic acid (2-pyrrolidin-1-yl-pyrimidin-5-yl)-amide] showed an IC50 of 64 nM. Work on `COc1cc2ncnc(C3CCN(CC(=O)Nc4ccc(OC(C)C)cc4)CC3)c2cc1OC` [Example 10, 2-[4-(6,7-Dimethoxy-quinazolin-4-yl)-piperidin-1-yl]-N-(4-isopropoxy-phenyl)-acetamide] yielded an IC50 of 42 nM.
